What is called melting point is the temperature, or range, at which the solid turns liquid.

pKi: −log10 of the molar value.

For one series, the target named is T1, human NMB receptor (BB1) (Homo sapiens, UniProt P28336).
T1 construct: expressed in transfected cells; membranes prepared from the cells
Kind of series: BB1 binding assay ([125I][Tyr4]bombesin displacement, CHO-K1 membranes). The following applies: Table 1, human NMB receptor binding affinity; Ki from IC50 by Cheng-Prusoff; read-out: NMB Ki. In outline: (§1)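 Membranes from CHO-K1 cells stably expressing human NMB (BB1) or GRP (BB2) receptors, in 50 mM Tris-HCl pH 7.4 with BSA and protease inhibitors, incubated with [125I][Tyr4]bombesin (<0.1 nM) for 60 min (BB1) or 90 min (BB2). Nonspecific binding defined with 1 μM bombesin; filtration and gamma counting; IC50 converted to Ki by Cheng-Prusoff.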

The target in the next series is T2, human GRP receptor (BB2) (Homo sapiens, UniProt P30550).
T2 construct: expressed in transfected cells; membranes prepared from the cells
T2 sequence (P30550 whole entry): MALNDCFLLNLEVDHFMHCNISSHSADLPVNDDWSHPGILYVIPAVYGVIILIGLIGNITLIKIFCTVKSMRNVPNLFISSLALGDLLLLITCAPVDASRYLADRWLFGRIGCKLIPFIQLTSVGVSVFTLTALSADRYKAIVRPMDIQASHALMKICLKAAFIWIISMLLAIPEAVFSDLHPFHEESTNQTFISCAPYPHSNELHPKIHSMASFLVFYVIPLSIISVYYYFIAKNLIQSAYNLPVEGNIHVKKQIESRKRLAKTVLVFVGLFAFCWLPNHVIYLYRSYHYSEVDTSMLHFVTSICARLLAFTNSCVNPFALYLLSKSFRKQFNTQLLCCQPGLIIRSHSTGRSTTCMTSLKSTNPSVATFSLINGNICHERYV
Put plainly: BB2 binding assay ([125I][Tyr4]bombesin displacement, CHO-K1 membranes). To be noted: Table 1, human GRP receptor binding affinity; Ki from IC50 by Cheng-Prusoff; read-out: GRP Kj. A digest of the protocol:
as §1

The subject of series [1] is sexual behaviour of sexually dysfunctional male rats. Put plainly: Sexual behaviour of fluoxetine-induced sexually dysfunctional male rats. It is filed as in vivo, rat. As to the method: Sprague Dawley male rats (Charles River, UK) were kept, 4 rats per cage, in a reversed lighting regime (12:12 hours, lights off at 5.00 h), with free access to food and water. The rats were pre-selected by being presented with a receptive female at 4 days intervals, i.e. every third day (having 2 clear days between presentations) until completing 6-7 trials of baseline determination. The animals showing consistently vigorous behaviour (ejaculatory latencies <300s) were chosen for further experiments. Animals were treated for 3 consecutive days with either vehicle (water) or fluoxetine (20 mg/kg, i.p., in a 2 ml/kg dosing volume). On the fourth day, the animals treated with water received vehicle (veh+veh) and the animals treated with fluoxetine received one of the three following treatments: Compound (1) (15 mg/kg, dissolved in 50% 2-hydroxypropyl-β-cyclodextrin in saline), vehicle (cyclodextrine), or yohimbine (2 mg/kg dissolved in water). All treatments were administered i.p. in a 1 ml/kg volume, 1 h before tests.
(§2) For all the sexual behaviour tests, the males were placed in an observation arena (50-60 cm diameter), starting 5 hours into the dark cycle and observed under red illumination. Three to 4 minutes after placing the male in the arena, a receptive female (ovariectomised, bearing a 7 mm Silastic implant of oestradiol benzoate) was introduced to the arena and the following parameters noted: Mount Latency: time (in seconds) taken between introduction of female and first mount. A maximum time of 15 minutes (900 seconds) was allowed, and the test terminated if no mounts were recorded within that time (FIG. 16), Ejaculation Latency: time (in seconds) taken from first intromission to ejaculation. A maximum time of 30 minutes (1800 seconds) was given, and the test terminated if ejaculation was not achieved in that time (FIG. 17), Percentage of males achieving ejaculation within 30 minutes was calculated (FIG. 18).
A one-way ANOVA followed by Dunnett's t test was used to compare the fluoxetine+vehicle group and other groups for mount and ejaculatory latencies. Percentage of animals ejaculating was analysed using a Chi-square test followed by Fisher's test. (*: P<0.05, **: P<0.01, ***: P<0.001; n=15-19).

Series [2] deals with sexual behaviour of normal male rats. Kind of series: Sexual behaviour of normal (sexually vigorous) male rats. It is filed as in vivo, rat. The following applies: Compound (1) 15 mg/kg or Fluoxetine 20 mg/kg i.p. 1 h before test. As to the method:
The potentially stimulatory effect of Compound (1) on male sexual behaviour has been tested on sexually vigorous rats. Sprague Dawley male rats (Charles River, UK) were kept, 4 rats per cage, in a reversed lighting regime (12:12 hours, lights off at 5.00 h), with free access to food and water. The rats were pre-selected by being presented with a receptive female at 4 days intervals, i.e. every third day (having 2 clear days between presentations) until completing 6-7 […] of baseline determination. The animals showing consistently vigorous behaviour (ejaculatory latencies <300s) were chosen for further experiments (n—24). Animals were randomised into three groups. All animals received all three treatments following a latin-square design. Treatments were administered once a week, with a baseline test in between treatments (4 days intervals between baseline and test day). Treatments were Compound (1) (15 mg/kg, dissolved in 50% 2-hydroxypropyl-β-cyclodextrin in saline), vehicle, or Fluoxetine (20 mg/kg dissolved in 100% DMSO). All treatments were administered i.p. in a 1 ml/kg volume, 1 h before tests.
as §2, with “11), Intromission Latency: time (in seconds) taken between introduction of female and first intromission (FIG. 12), Number of Mounts: to reach ejaculation. When ejaculation was not reached, the number of mounts was not analyzed, Number of Intromissions: to reach ejaculation. When ejaculation was not reached, the number of intromissions was not analyzed (FIG. 13 is number of mounts+intromissions),” for “16),”, “14), and Refractory Period: time (in seconds) taken from ejaculation to the first mount” for “17), Percentage”, “the next series of sexual activity. In those animals reaching” for “males achieving”, “the test” for “within 30 minutes”, “terminated at the end of the refractory period, as indicated by the first mount of the next sexual cycle” for “calculated”, “15).” for “18).”
A one-way ANOVA followed by Dunnett's t test was used to compare treated vs vehicle groups each day of testing, for all the sexual behaviour parameters. (*P<0.05, **P<0.01; n=15-16).

Setting [3] is: fluoxetine 20 mg/kg i.p. for 3 consecutive days, vs vehicle+vehicle group.

T1 sequence (P28336 whole entry): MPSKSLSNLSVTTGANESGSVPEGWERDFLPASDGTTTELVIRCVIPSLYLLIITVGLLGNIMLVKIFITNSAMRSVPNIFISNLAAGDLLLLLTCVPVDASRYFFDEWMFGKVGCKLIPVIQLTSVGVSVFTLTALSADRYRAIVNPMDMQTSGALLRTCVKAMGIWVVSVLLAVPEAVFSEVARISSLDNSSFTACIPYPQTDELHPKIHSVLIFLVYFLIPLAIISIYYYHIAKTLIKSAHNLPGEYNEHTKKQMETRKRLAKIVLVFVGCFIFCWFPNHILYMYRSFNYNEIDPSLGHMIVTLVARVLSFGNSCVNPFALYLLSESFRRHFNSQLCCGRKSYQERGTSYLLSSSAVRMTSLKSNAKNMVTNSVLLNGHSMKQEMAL

In turn, `C[C@@](Cc1c[nH]c2ccccc12)(Nc1cncnc1)C(=O)NCC1(c2ccccn2)CCCCC1` [Example 20, (S)-3-(1H-Indol-3-yl)-2-methyl-N-(1-pyridin-2-yl-cyclohexylmethyl)-2-(pyrimidin-5-ylamino)-propionamide] displayed a melting point of 95 to 98 °C. The pKi on human NMB receptor (BB1) was 5.50.
The molecule `CCc1coc(N[C@@](C)(Cc2c[nH]c3ccccc23)C(=O)NCC2(c3ccc(OC)cn3)CCCCC2)n1` [Example 15, (S)-2-(4-Ethyl-oxazol-2-ylamino)-3-(1H-indol-3-yl)-N-[1-(5-methoxy-pyridin-2-yl)-cyclohexylmethyl]-2-methyl-propionamide] yielded a melting point of 60 to 65 °C. Moreover, the pKi at human GRP receptor (BB2) is 5.75. For the same molecule, the pKi at human NMB receptor (BB1) is 6.67.
On to `C[C@@](Cc1c[nH]c2ccccc12)(Nc1ccncc1)C(=O)NCC1(c2ccccn2)CCCCC1` [Example 18, (S)-3-(1H-Indol-3-yl)-2-methyl-2-(pyridin-4-ylamino)-N-(1-pyridin-2-yl-cyclohexylmethyl)-propionamide], for which the melting point was in the range of 180 to 195 °C. Moreover, the pKi on human NMB receptor (BB1) is 6.52.
`COc1ccc(C2(CNC(=O)[C@](C)(Cc3c[nH]c4ccccc34)Nc3nc(-c4ccccc4)co3)CCCCC2)nc1` [Example 14, (S)-3-(1H-Indol-3-yl)-N-[1-(5-methoxy-pyridin-2-yl)-cyclohexylmethyl]-2-methyl-2-(4-phenyl-oxazol-2-ylamino)-propionamide] showed a melting point of 85 to 90 °C. At human GRP receptor (BB2), the pKi was 5.92. The pKi on human NMB receptor (BB1) is 6.97.
In the case of `COc1ccc(C2(CNC(=O)[C@](C)(Cc3c[nH]c4ccccc34)Nc3nc(-c4ccc(C#N)cc4)co3)CCCCC2)nc1` [Example 13, (S)-2-[4-(4-Cyano-phenyl)-oxazol-2-ylamino]-3-(1H-indol-3-yl)-N-[1-(5-methoxy-pyridin-2-yl)-cyclohexylmethyl]-2-methyl-propionamide], the melting point lay in the range of 105 to 108 °C. For the same molecule, on human GRP receptor (BB2), the pKi is 5.86. Moreover, the pKi at human NMB receptor (BB1) was 7.72.
In the case of `C[C@@](Cc1c[nH]c2ccccc12)(Nc1cncc2ccccc12)C(=O)NCC1(c2ccccn2)CCCCC1` [Example 19, (S)-3-(1H-Indol-3-yl)-2-(isoquinolin-4-ylamino)-2-methyl-N-(1-pyridin-2-yl-cyclohexylmethyl)-propionamide], the melting point was 98 to 101 °C. Further, the pKi on human NMB receptor (BB1) was 5.90.
Regarding `COC(=O)[C@@H]1[C@H]2C[C@H]3c4[nH]c5ccccc5c4CCN3C[C@@H]2CC[C@@H]1O` [Yohimbine, yohimbine], in series [1] (fluoxetine-pretreated rats, Compound (1) 15 mg/kg or yohimbine 2 mg/kg i.p. 1 h before test, vs fluoxetine+vehicle (FIG. 16)), the “Mount Latency” value is on record as “followed a similar trend, although this did not reach significance”. Also, the “Ejaculation Latency” value in series [1] (fluoxetine-pretreated rats, Compound (1) 15 mg/kg or yohimbine 2 mg/kg i.p. 1 h before test, vs fluoxetine+vehicle (FIG. 17)) is on record as “followed a similar trend, although this did not reach significance”. Besides, the “percentage of animals ejaculating” value in series [1] (fluoxetine-pretreated rats, Compound (1) 15 mg/kg or yohimbine 2 mg/kg i.p. 1 h before test, vs fluoxetine+vehicle (FIG. 18)) is reported as “followed a similar trend, although this did not reach significance”.
`COc1ccc(C2(CNC(=O)[C@](C)(Cc3c[nH]c4ccccc34)Nc3nc(-c4ccc([N+](=O)[O-])cc4)cs3)CCCCC2)nc1` [Example 16]: the melting point was in the range of 110 to 114 °C. Besides, the pKi at human NMB receptor (BB1) is 7.82.
In the case of `COCC1(CNC(=O)[C@](C)(Cc2c[nH]c3ccccc23)Nc2nc(-c3ccc([N+](=O)[O-])cc3)co2)CCCCC1` [Example 10, (S)-3-(1H-Indol-3-yl)-N-(1-methoxymethyl-cyclohexylmethyl)-2-methyl-2-[4-(4-nitro-phenyl)-oxazol-2-ylamino]-propionamide], the melting point lay in the range of 189 to 192 °C. Moreover, on human NMB receptor (BB1), the pKi was 6.33.
`C[C@@](Cc1c[nH]c2ccccc12)(Nc1nc(-c2ccc([N+](=O)[O-])cc2)co1)C(=O)NCC(=O)c1ccccc1` [Example 11, (S)-3-(1H-Indol-3-yl)-2-methyl-2-[4-(4-nitro-phenyl)-oxazol-2-ylamino]-N-(2-oxo-2-phenyl-ethyl)-propionamide]: the melting point fell in the range of 80 to 90 °C. Moreover, the pKi on human NMB receptor (BB1) was 5.25.
In the same order, the values of `O=C(NCC1(c2ccccn2)CCCCC1)[C@@H](Cc1ccccc1)Nc1ccccc1` [Example 24, (R)-3-Phenyl-2-phenylamino-N-[1 1-pyridin-2-yl-cyclohexylmethyl)-propionamide] are 113 to 115 °C and 6.86.
As to `Cc1cccc(N[C@@](C)(Cc2c[nH]c3ccccc23)C(=O)NCC2(c3ccccn3)CCCCC2)c1` [Example 22, (S)-3-(1H-Indol-3-yl)-2-methyl-N-(1-pyridin-2-yl-cyclohexylmethyl)-2-m-tolylamino-propionamide], the melting point is 70 to 75 °C. Besides, at human NMB receptor (BB1), the pKi was 6.19.
Consider `CNCCC(Oc1ccc(C(F)(F)F)cc1)c1ccccc1` (stereo not drawn) [Fluoxetine, reference compound], for which the “Mount Latency” value in series [2] (vs vehicle (FIG. 11)) and in series [1] (setting [3]) was “significantly increased” throughout. Also, in series [2] (vs vehicle (FIG. 12)), the “Intromission Latency” value is “significantly increased”. The “number of mounts and intromissions required to achieve ejaculation” value in series [2] (vs vehicle (FIG. 13)) is reported as “No changes”. The “Ejaculation Latency” value in series [2] (vs vehicle (FIG. 14)) is given as “also increased”; in series [1] (setting [3]), “significantly increased”. For the same molecule, the “Refractory Period” value in series [2] (vs vehicle (FIG. 15)) is on record as “also increased”. The “number of animals ejaculating” value in series [1] (setting [3]) is “significantly lower”.

Source of the values: patent publication US20020169101A1, “Treatment of sexual dysfunction” (priority 1999, published 2002).
